In brackets after ≈: the same amount, converted by molar mass. Several values for one entry are separate records, joined by “and”; a condition that tells them apart may be missing. Equal values may be shown once.
Columns and labels:
[1] = system: erythrocytes; assay: In vitro toxicity study, haemolysis (Tables 11 and 12); assay type: cell-based, horse; settings: for Haemolysis of erythrocytes, Mean ± S.E.M.: 25 μM (Table 12); for Haemolysis of erythrocytes: 25 μM, individual blood samples (Table 12)
Method: The toxicity of various nystatin derivatives was tested at 2 and 5 μg/mL and at 25 μM.
Compounds were dissolved in DMSO at 5 mg/mL and 0.1 mL samples with different concentrations were prepared in DMSO. The samples were mixed with 0.9 mL PBS buffer containing 2.5% horse blood (PBS-HB; kept on ice) and incubated at 37° C. for 30 min without agitation.
Cells were pelleted by centrifugation at 5000 rpm for 5 min and haemolysis was evaluated by measuring OD545. 100% haemolysis was defined as the OD545 value obtained from a suspension of 2.5% horse blood in distilled water.

[2] = system: Cryptococcus humicolus ATCC 9949; assay: Antifungal susceptibility study (1), broth microdilution MIC; assay type: cell-based; settings: lowest concentration preventing any visible growth, read at 48 hours, 25° C., RPMI 1640 pH 7.0
Method: (§1) ACROS ORGANICS, New Jersey, USA), pH 7.0, was used in study. […] Then these DMSO solutions were diluted 50-fold (first 10-fold and then 5-fold) in the test medium. […] The solutions were prepared just before using. The organisms used for susceptibility testing were: Candida albicans ATCC 14053, Cryptococcus humicolus ATCC 9949, Aspergillus niger ATCC 16404 and Fusarium oxysporum VKM F-140 (=CMI, IMI 90473). Organisms were stored on potato dextrose agar […] 50% glycerol solution at -70° C. For short-term storage, stock cultures were stored on agar […] 4° C. The cultures of yeasts were sub-cultured onto Sabouraud dextrose (SAB) agar and incubated for 24 hours at 35° C. (Candida albicans) or for 48 hours at 25° C. (Cryptococcus humicolus) to obtain a freshly grown pure culture. The cultures of moulds were sub-cultured onto potato dextrose agar and incubated for 7 days at 35° C. […] (Fusarium oxysporum) to ensure maximum sporulation. […] Inoculum quantitation was performed by plating dilution of the inoculum on Sabouraud dextrose agar to determine the viable number of CFU per milliliter. Sterile 96-well flat-bottomed microtitration plates were used for testing. 100 μl of diluted inocula were dispensed into each microdilution well containing 100 μl of the double dilutions of compounds. Drug-free and yeast/mould-free controls were included. Microdilution trays were incubated at 35° C. (Candida albicans and moulds) or 25° C. (Cryptococcus humicolus) without agitation and observed for the presence or absence of visible growth. […] Minimal inhibitory concentrations (MICs) were read at 48 hours.

[3] = system: Candida albicans ATCC 14053; assay: as above; assay type: cell-based; settings: lowest concentration preventing any visible growth, read at 48 hours, 35° C., RPMI 1640 pH 7.0
Method: as §1

[4] = system: Fusarium oxysporum VKM F-140; assay: as above; assay type: cell-based; settings: lowest concentration preventing any visible growth, read at 48 hours, 35° C., RPMI 1640 pH 7.0
Method: (§2) ACROS ORGANICS, New Jersey, USA), pH 7.0, was used in study. […] Then these DMSO solutions were diluted 50-fold (first 10-fold and then 5-fold) in the test medium. […] The solutions were prepared just before using. The organisms used for susceptibility testing were: Candida albicans ATCC 14053, Cryptococcus humicolus ATCC 9949, Aspergillus niger ATCC 16404 and Fusarium oxysporum VKM F-140 (=CMI, IMI 90473). Organisms were stored on potato dextrose agar […] 50% glycerol solution at -70° C. For short-term storage, stock cultures were stored on agar […] 4° C. The cultures of yeasts were sub-cultured onto Sabouraud dextrose (SAB) agar and incubated for 24 hours at 35° C. (Candida albicans) or for 48 hours at 25° C. (Cryptococcus humicolus) to obtain a freshly grown pure culture. The cultures of moulds were sub-cultured onto potato dextrose agar and incubated for 7 days at 35° C. […] (Fusarium oxysporum) to ensure maximum sporulation. […] Finally, the suspensions were vortexed for 15 s to break up clumps of cells and then filtered through four layers of sterile gauze. The densities of conidial spore suspensions was measured at 530 nm and adjusted to 0.09-0.11 for Aspergillus niger and 0.15-0.17 for Fusarium oxysporum. These suspensions were diluted 1:50 with the standard medium. […] Inoculum quantitation was performed by plating dilution of the inoculum on Sabouraud dextrose agar to determine the viable number of CFU per milliliter. Sterile 96-well flat-bottomed microtitration plates were used for testing. 100 μl of diluted inocula were dispensed into each microdilution well containing 100 μl of the double dilutions of compounds. Drug-free and yeast/mould-free controls were included. Microdilution trays were incubated at 35° C. (Candida albicans and moulds) or 25° C. (Cryptococcus humicolus) without agitation and observed for the presence or absence of visible growth. […] Minimal inhibitory concentrations (MICs) were read at 48 hours.

[5] = system: Aspergillus niger ATCC 16404; assay: as above; assay type: cell-based; settings: lowest concentration preventing any visible growth, read at 48 hours, 35° C., RPMI 1640 pH 7.0
Method: as §2

[6] = system: mice (C57B1/6xDBA/2)F1 B6D2F1; settings: single injection into tail vein, probit analysis
Method: Male mice of hybrids of first generation (C57B1/6xDBA/2)F1 B6D2F1, weight 20-22 g., received from the Central farm. “Kryukovo” of Russian Academies of Medical Science (RAMS) were used. Animals were maintained in a vivarium in plastic cages (with hardwood bedding in environmentally controlled conditions: 24±1° C., 12/12 hours light/dark cycle) on a standard diet of bricketed forages with easy access to drinking water (ad libitum). After a 2-week quarantine period, healthy animals were used in experimental work.
The solutions were prepared as follows: dry antibiotic substances (5 mg) were mixed with dry sodium deoxycholate (4.1 mg) in a sterile glass vial. 10 mL of phosphate buffer (NaH2PO4—1.59 g; Na2HPO4—0.96 g; H2O—to 100 mL) was added to the mix and the suspension was immediately subjected to vigorous shaking for 10 minutes until homogeneous suspensions were formed.
Preparations of amphotericin B and S44HP were also prepared in the same way.
The antibiotic preparations were singly injected into the mice's tail vein within 1-1.5 hours after the preparation of solutions. […] Each antibiotic was used in a range of doses resulting in 0% to 100% lethality and a minimum of 3 intermediate doses. Animals were randomized into groups, each containing 6 mice.

[7] = system: Candida albicans (strain 14053 ATCC); assay: Model of the candidiasis sepsis of mice, kidney burden; assay type: in vivo
Method: In experiments used female mice of hybrids of first generation (C57B1/6xDBA/2)F1 (B6D2F1), weight 18-20 g., received from the Central farm “Kryukovo” of Russian Academies of Medical Science (RAMS). Animals were maintained in Institute' vivarium in plastic cages (with hardwood bedding in environmentally controlled room: 24±1° C., 12/12 hours light/dark cycle) on a standard diet of bricketed forages with an easy approach to drinking water (ad libitum). After 2-week quarantine healthy animals were used in experimental work.
A preparation of comparison was amphotericin B (pure). Solutions of tested preparations prepared ex tempore by the technique specified by the customer.
Animals were housed on 3 mice and infected intravenously with culture Candida albicans in a doze 1.0 million CFU/mouse in volume of 0.1 ml. It is necessary to note, that doze Candida albicans remained a constant in all experiments. In 30 minutes after infection to mice carried out the first intravenous introduction of tested preparations in corresponding dozes in volume of 0.2 ml (with a speed of 0.2 ml/30 second).
Experiment has been planned in such a manner that in each experiment one doze (both for amphotericin B was used, and for tested preparations), each doze entered daily within four days, since day of infection (0, 1, 2 and 3 days). At each experiment there was a group untreated, infected with Candida albicans animals. Also there was a group “placebo”, intact (not infected) animals, which intravenously (in the same volume as medical preparations) injected 0.2 ml of solvent—phosphatic buffer +5% glucose (1:1).
On the post challenge 5th day of experiment, mice were weighed and euthanized (killed) by a cervical dislocation. Then, in sterile conditions, Candida albicans burdens were determined by viable counting of homogenates from the kidneys. The kidneys, which were removed aseptically and weighed, pounded in porcelain mortars with sterile corundum, did dilutions of the received suspensions and sowed on Petri dishes with agar Saburo, incubated for 48 hours at temperature 35° C., then counted up developed colonies Candida albicans and recalculated their quantity on 1 g of kidney' tissue. The first dilution was 10^−1. Zero result at this cultivation accepted for 5 CFU/g.
For the basic criterion of an assessment of the investigated preparations the maximal effect of the Amphotricin B was accepted (effective dose, ED).
For significant accepted distinctions of average at P≦0.05 at comparison by Student t-criterion.

[8] = dose 0.16 mg/kg/d i.v. for four days, day 5, n=3 mice
[9] = dose 0.62 mg/kg/d i.v. for four days, day 5, n=3 mice
[10] = dose 2.5 mg/kg/d i.v. for four days, day 5, n=3 mice
[11] = dose 10 mg/kg/d i.v. for four days, day 5, n=3 mice, zero result accepted for 5 CFU/g

SMILES	Haemolysis of erythrocytes, Mean ± S.E.M. [1] [%]	Haemolysis of erythrocytes [1]	MIC Cryptococcus humicolus ATCC 9949 [2] [µg/mL]	MIC Candida albicans ATCC 14053 [3] [µg/mL]	MIC Fusarium oxysporum VKM F-140 [4] [µg/mL]	MIC Aspergillus niger ATCC 16404 [5] [µg/mL]	LD50 [6] [mg/kg]	MTD [6] [mg/kg]	Candida albicans burden in kidneys (Mean) [7, 8] [CFU/g]	Candida albicans burden in kidneys (Mean) [7, 9] [CFU/g]	Candida albicans burden in kidneys (Mean) [7, 10] [CFU/g]	Candida albicans burden in kidneys (Mean) [7, 11] [CFU/g]	Candida albicans burden in kidneys (Mean) ([7]; in vivo, iv, 1.25 mg/kg/day) [CFU/g]	Candida albicans burden in kidneys (Mean) ([7]; dose 1.25 mg/kg/d i.v. for four days, day 5, n=3 mice) [CFU/g]
CC1C=CC=CC=CC=CC=CC=CC=CC(OC2OC(C)C(O)C(NCC3(O)OCC(O)C(O)C3O)C2O)CC2OC(O)(CC(O)C(O)CCC(O)CC(O)CC(O)CC(=O)OC(C)C(C)C1O)CC(O)C2C(=O)O (single isomer, unassigned) [Compound 17]	2.4 ± 0.6	1.7% (2×) and 2.1% and 0.8% and 3.3% and 4.8%	1 (≈ 0.921 µM)	1 (≈ 0.921 µM)	8 (≈ 7.36 µM)	2 (≈ 1.84 µM)								
CC1C=CC=CC=CC=CC=CC=CC=CC(OC2OC(C)C(O)C(NCC3(O)OCC(O)C(O)C3O)C2O)CC2OC(O)(CC(O)C(O)CCC(O)CC(O)CC(O)CC(=O)OC(C)C(C)C1O)CC(O)C2C(=O)O (single isomer, unassigned) [Compound 18]	3.9 ± 1.3	3.0% and 3.2% and 9.7% and 1.0% and 1.5% and 5.3%	1 (≈ 0.921 µM)	1 (≈ 0.921 µM)	8 (≈ 7.36 µM)	2 (≈ 1.84 µM)								
CC1C=CC=CC=CC=CC=CC=CC=CC(OC2OC(C)C(O)C(N)C2O)CC2OC(O)(CC(O)CCCC(O)CC(O)CC(O)CC(=O)OC(C)C(C)C1O)CC(O)C2C(=O)NCCN(C)C.NC(CCC(=O)O)C(=O)O (centres unmarked) [Compound 27]							20.6	10.8						
CC1C=CC=CC=CC=CC=CC=CC=CC(OC2OC(C)C(O)C(N)C2O)CC2OC(O)(CC(O)C(O)CCC(O)CC(O)CC(O)CC(=O)OC(C)C(C)C1O)CC(O)C2C(=O)NCCN(C)C.NC(CCC(=O)O)C(=O)O (centres unmarked) [Compound 28]							22.1	14.7						
CC1O[C@@H](O[C@H]2/C=C/C=C/C=C/C=C/C=C/C=C/C=C/[C@H](C)[C@@H](O)[C@@H](C)[C@H](C)OC(=O)C[C@H](O)C[C@H](O)C[C@H](O)CC[C@@H](O)[C@H](O)C[C@]3(O)C[C@H](O)[C@@H](C(=O)NCCN(C)C)[C@H](C2)O3)[C@H](O)C(NCC2(O)OC[C@@H](O)[C@@H](O)[C@@H]2O)[C@@H]1O.Cl (some centres unmarked) [Compound 41]			1	0.5	2	1	38.6	21.2	67000	22667	1667	5	2767	
CC1O[C@@H](O[C@H]2/C=C/C=C/C=C/C=C/C=C/C=C/C=C/[C@H](C)[C@@H](O)[C@@H](C)[C@H](C)OC(=O)C[C@H](O)C[C@H](O)C[C@H](O)CC[C@@H](O)[C@H](O)C[C@]3(O)C[C@H](O)[C@@H](C(=O)NCCN(C)C)[C@H](C2)O3)[C@H](O)C(N)[C@@H]1O (some centres unmarked) [Compound 48, N,N-dimethylaminoethyl (DMAE) S44HP Amide]			0.5 (≈ 0.503 µM)	0.5 (≈ 0.503 µM)	1 (≈ 1.01 µM)	1 (≈ 1.01 µM)	32.2	25.9	51667	3233	63	5		1487

From US8415312B2, “Compound which is a nystatin derivative” (Biosergen AS, priority 2007, dated 2013)
